We go through 20 compounds from ChEMBL document CHEMBL1921694, “Structure-based design of isoindoline-1,3-diones and 2,3-dihydrophthalazine-1,4-diones as novel B-Raf inhibitors” (Bioorg Med Chem Lett, 2011).

In the test the target is Serine/threonine-protein kinase B-raf (Homo sapiens, UniProt P15056). Description: Inhibition of human recombinant his6-tagged B-Raf expressed in Sf9 cells assessed as inhibition of MEK1 phosphorylation after 60 mins.
Sequence of Serine/threonine-protein kinase B-raf (P15056 whole entry): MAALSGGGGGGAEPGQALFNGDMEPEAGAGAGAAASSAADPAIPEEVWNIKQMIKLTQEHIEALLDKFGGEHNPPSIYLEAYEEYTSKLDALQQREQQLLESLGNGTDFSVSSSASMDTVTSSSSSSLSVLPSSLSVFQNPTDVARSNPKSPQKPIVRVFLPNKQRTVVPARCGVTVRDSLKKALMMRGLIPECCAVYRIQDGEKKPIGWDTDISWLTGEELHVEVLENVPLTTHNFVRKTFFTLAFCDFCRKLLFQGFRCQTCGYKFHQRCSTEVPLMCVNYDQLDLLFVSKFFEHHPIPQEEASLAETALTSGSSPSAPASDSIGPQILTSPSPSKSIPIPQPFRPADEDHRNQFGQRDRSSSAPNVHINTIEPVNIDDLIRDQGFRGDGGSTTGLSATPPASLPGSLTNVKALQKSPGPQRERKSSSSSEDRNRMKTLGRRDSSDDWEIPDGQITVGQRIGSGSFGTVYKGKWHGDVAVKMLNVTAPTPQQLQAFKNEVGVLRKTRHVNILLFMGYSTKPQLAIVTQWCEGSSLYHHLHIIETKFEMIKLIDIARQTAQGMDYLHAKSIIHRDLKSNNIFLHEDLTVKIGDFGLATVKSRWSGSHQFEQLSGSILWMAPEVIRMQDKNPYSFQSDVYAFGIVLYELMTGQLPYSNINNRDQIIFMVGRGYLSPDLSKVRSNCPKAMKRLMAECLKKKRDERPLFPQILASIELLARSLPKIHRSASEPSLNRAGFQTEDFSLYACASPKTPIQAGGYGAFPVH
Consider `O=C(Nc1cccc(Nc2cc3c(=O)[nH][nH]c(=O)c3cc2Cl)c1)c1cccc(C(F)(F)F)c1`, for which the IC50 came to 0.017 µM. For `O=C(Nc1cccc(Nc2cc3c(=O)[nH][nH]c(=O)c3cc2Cl)c1)c1cccc(OC(F)(F)F)c1` the value was 0.018 µM.

With `O=C1NC(=O)c2cc(Nc3cccc(O)c3)c(Nc3ccccc3)cc21`, the IC50 amounted to 1.68 µM. For `O=C(Nc1cccc(Nc2cc3c(cc2Cl)C(=O)NC3=O)c1)c1cccc(I)c1` the value was 0.008 µM.

On to `O=C(Nc1cccc(Nc2cc3c(cc2Cl)C(=O)NC3=O)c1)c1cccc(Br)c1`, for which the half-maximal inhibitory concentration (IC50) amounted to 0.035 µM. For `O=C(Nc1cccc(Nc2cc3c(cc2Cl)C(=O)NC3=O)c1)c1cccc(OC(F)(F)F)c1` the value was 0.006 µM; for `N#Cc1cccc(C(=O)Nc2cccc(Nc3cc4c(cc3Cl)C(=O)NC4=O)c2)c1`, 0.297 µM; for `Cn1nc(C(C)(C)C)cc1C(=O)Nc1cccc(Nc2cc3c(=O)[nH][nH]c(=O)c3cc2Cl)c1`, 0.293 µM.

Regarding `O=C(Nc1cccc(Nc2cc3c(=O)[nH][nH]c(=O)c3cc2Cl)c1)c1cccc(Cl)c1`, the concentration for half-maximal inhibition (IC50) worked out at 0.035 µM. Take `N#Cc1cccc(C(=O)Nc2cccc(Nc3cc4c(=O)[nH][nH]c(=O)c4cc3Cl)c2)c1`: the half-inhibitory concentration (IC50) turned out to be 0.296 µM. Under `O=C(Nc1cccc(Nc2cc3c(cc2Cl)C(=O)NC3=O)c1)c1cccc(C(F)(F)F)c1` stands 0.01 µM; under `O=C(Nc1cccc(Nc2cc3c(=O)[nH][nH]c(=O)c3cc2Cl)c1)c1cccc(I)c1`, 0.008 µM; under `O=c1[nH][nH]c(=O)c2cc(Nc3cccc(O)c3)c(Nc3cccc(O)c3)cc12`, 0.29 µM.

`O=C1NC(=O)c2cc(Nc3cccc(O)c3)c(Nc3cccc(O)c3)cc21`: the IC50 came to 0.338 µM. For `O=C1NC(=O)c2cc3c(-c4cccc(O)c4)c[nH]c3cc21` the value was 3.47 µM; for `Cn1nc(C(C)(C)C)cc1C(=O)Nc1cccc(Nc2cc3c(cc2Cl)C(=O)NC3=O)c1`, 0.349 µM. As for `O=C(Nc1cccc(Nc2cc3c(cc2Cl)C(=O)NC3=O)c1)c1cccc(Cl)c1`, the half-maximal inhibitory concentration (IC50) stood at 0.117 µM. Regarding `O=C(Nc1cccc(Nc2cc3c(=O)[nH][nH]c(=O)c3cc2Cl)c1)c1cccc(Br)c1`, the IC50 turned out to be 0.019 µM.

For `O=c1[nH][nH]c(=O)c2cc(Nc3cccc(O)c3)c(Nc3ccccc3)cc12`, the IC50 is 3.77 µM.

With `NC(=O)c1ccc2[nH]cc(-c3cccc(O)c3)c2c1`, the IC50 is above 10 µM.

What is called IC50 is the concentration that inhibits the measured activity by half.
